Experiments:
[1] = target: T1, Bromodomain-containing protein 2 (Homo sapiens, UniProt P25440); test: Binding affinity to biotinylated BRD2 BD2 (349 to 460 amino acid residues) (unknown origin) expressed in Rosetta2 DE3 cells by bio-layer interferometry method
[2] = target: T2, ATPase family AAA domain-containing protein 2B (Homo sapiens, UniProt Q9ULI0); test: Binding affinity to biotinylated ATAD2B (953 to 1086 amino acid residues) (unknown origin) expressed in Rosetta2 DE3 cells by bio-layer interferometry method
T2 sequence (Q9ULI0 whole entry): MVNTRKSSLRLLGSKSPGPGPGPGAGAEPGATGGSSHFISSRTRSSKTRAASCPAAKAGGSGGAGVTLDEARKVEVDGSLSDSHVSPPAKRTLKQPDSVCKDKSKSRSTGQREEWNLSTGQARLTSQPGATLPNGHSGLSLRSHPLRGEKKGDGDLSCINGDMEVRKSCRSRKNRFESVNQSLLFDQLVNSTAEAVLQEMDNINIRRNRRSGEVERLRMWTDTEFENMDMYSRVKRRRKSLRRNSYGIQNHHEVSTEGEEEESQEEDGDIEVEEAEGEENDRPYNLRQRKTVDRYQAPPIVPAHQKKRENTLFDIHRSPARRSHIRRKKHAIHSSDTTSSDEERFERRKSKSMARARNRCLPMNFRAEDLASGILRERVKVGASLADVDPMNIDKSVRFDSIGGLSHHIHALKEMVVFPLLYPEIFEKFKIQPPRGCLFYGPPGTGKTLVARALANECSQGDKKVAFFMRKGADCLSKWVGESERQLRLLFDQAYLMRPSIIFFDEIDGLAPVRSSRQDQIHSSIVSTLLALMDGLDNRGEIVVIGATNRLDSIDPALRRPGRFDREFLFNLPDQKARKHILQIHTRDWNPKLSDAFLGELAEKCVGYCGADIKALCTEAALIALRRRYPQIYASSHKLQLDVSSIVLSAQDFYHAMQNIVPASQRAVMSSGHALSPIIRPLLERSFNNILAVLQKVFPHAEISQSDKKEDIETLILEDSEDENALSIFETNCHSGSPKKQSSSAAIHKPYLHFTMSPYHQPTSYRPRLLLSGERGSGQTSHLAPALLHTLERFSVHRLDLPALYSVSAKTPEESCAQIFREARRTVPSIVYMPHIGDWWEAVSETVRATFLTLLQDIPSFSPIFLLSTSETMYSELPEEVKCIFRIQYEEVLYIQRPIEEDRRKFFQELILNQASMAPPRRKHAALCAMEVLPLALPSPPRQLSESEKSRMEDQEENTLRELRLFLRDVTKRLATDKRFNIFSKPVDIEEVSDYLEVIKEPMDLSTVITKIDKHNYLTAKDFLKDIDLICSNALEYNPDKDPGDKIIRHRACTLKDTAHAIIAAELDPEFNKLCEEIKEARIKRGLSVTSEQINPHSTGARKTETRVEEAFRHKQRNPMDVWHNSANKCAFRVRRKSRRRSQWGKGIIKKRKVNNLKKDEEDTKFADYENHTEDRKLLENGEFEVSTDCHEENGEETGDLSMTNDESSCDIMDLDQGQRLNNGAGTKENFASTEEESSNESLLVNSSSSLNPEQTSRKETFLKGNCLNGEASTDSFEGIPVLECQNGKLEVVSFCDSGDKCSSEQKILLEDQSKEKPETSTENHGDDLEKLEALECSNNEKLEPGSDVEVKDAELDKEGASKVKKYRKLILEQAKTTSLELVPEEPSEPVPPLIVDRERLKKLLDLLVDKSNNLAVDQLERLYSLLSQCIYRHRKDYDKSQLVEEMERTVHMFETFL

[3] = target: Histone-lysine N-methyltransferase 2A (Homo sapiens, UniProt Q03164); test: Binding affinity to biotinylated MLL1 (1566 to 1784 amino acid residues) (unknown origin) expressed in Rosetta2 cells by bio-layer interferometry method
[4] = target: SWI/SNF-related matrix-associated actin-dependent regulator of chromatin subfamily A member 4 (Homo sapiens, UniProt P51532); test: Binding affinity to biotinylated BRG1 (59 to 180 amino acid residues) (unknown origin) expressed in Rosetta2 cells by bio-layer interferometry method
K562 = test: cells; format: functional, cell-based; conditions: Homo sapiens, K562, 96 h
[5] = target: T3, Bromodomain-containing protein 4 (Homo sapiens, UniProt O60885); test: Displacement of FAM-labeled ZBA248 from BRD4 BD1 (44 to 168 amino acid residues) (unknown origin) expressed in Rosetta2 DE3 cells after 30 mins by fluorescence polarization assay
[6] = target: T3, Bromodomain-containing protein 4; test: Displacement of FAM-labeled ZBA248 from BRD4 BD2 (333 to 460 amino acid residues) (unknown origin) expressed in Rosetta2 DE3 cells after 30 mins by fluorescence polarization assay
[7] = target: T1, Bromodomain-containing protein 2; test: Displacement of FAM-labeled ZBA248 from BRD2 BD1 (72 to 205 amino acid residues) (unknown origin) expressed in Rosetta2 DE3 cells after 30 mins by fluorescence polarization assay
[8] = target: T1, Bromodomain-containing protein 2; test: Displacement of FAM-labeled ZBA248 from BRD2 BD2 (349 to 460 amino acid residues) (unknown origin) expressed in Rosetta2 DE3 cells after 30 mins by fluorescence polarization assay
[9] = target: T3, Bromodomain-containing protein 4; test: biochemical
[10] = target: T3, Bromodomain-containing protein 4; test: biochemical; remark: listed apart in the source

T1 sequence (P25440 whole entry, the tested form may be a part): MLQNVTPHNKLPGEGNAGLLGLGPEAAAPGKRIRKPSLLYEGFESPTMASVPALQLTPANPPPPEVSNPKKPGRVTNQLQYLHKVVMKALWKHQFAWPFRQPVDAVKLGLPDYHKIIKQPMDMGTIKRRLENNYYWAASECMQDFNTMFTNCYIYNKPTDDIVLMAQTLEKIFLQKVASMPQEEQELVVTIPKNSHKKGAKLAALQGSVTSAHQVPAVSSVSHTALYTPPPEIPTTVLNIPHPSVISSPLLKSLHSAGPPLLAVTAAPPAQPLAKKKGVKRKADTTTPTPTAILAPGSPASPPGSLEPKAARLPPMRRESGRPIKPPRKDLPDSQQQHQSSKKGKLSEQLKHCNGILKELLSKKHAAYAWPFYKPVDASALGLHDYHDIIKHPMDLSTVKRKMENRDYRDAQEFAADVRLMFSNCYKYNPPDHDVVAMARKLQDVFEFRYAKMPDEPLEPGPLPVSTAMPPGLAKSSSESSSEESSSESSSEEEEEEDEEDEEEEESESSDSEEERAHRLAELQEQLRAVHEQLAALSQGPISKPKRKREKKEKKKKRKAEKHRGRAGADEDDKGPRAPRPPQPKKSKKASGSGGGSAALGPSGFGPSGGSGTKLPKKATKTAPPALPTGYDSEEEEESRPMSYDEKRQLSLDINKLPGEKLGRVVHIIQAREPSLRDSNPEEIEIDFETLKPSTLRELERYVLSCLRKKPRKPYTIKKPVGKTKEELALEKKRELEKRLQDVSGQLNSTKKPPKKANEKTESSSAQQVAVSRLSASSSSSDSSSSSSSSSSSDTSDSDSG
Histone-lysine N-methyltransferase 2A, sequence (Q03164 1-2718 limits assumed): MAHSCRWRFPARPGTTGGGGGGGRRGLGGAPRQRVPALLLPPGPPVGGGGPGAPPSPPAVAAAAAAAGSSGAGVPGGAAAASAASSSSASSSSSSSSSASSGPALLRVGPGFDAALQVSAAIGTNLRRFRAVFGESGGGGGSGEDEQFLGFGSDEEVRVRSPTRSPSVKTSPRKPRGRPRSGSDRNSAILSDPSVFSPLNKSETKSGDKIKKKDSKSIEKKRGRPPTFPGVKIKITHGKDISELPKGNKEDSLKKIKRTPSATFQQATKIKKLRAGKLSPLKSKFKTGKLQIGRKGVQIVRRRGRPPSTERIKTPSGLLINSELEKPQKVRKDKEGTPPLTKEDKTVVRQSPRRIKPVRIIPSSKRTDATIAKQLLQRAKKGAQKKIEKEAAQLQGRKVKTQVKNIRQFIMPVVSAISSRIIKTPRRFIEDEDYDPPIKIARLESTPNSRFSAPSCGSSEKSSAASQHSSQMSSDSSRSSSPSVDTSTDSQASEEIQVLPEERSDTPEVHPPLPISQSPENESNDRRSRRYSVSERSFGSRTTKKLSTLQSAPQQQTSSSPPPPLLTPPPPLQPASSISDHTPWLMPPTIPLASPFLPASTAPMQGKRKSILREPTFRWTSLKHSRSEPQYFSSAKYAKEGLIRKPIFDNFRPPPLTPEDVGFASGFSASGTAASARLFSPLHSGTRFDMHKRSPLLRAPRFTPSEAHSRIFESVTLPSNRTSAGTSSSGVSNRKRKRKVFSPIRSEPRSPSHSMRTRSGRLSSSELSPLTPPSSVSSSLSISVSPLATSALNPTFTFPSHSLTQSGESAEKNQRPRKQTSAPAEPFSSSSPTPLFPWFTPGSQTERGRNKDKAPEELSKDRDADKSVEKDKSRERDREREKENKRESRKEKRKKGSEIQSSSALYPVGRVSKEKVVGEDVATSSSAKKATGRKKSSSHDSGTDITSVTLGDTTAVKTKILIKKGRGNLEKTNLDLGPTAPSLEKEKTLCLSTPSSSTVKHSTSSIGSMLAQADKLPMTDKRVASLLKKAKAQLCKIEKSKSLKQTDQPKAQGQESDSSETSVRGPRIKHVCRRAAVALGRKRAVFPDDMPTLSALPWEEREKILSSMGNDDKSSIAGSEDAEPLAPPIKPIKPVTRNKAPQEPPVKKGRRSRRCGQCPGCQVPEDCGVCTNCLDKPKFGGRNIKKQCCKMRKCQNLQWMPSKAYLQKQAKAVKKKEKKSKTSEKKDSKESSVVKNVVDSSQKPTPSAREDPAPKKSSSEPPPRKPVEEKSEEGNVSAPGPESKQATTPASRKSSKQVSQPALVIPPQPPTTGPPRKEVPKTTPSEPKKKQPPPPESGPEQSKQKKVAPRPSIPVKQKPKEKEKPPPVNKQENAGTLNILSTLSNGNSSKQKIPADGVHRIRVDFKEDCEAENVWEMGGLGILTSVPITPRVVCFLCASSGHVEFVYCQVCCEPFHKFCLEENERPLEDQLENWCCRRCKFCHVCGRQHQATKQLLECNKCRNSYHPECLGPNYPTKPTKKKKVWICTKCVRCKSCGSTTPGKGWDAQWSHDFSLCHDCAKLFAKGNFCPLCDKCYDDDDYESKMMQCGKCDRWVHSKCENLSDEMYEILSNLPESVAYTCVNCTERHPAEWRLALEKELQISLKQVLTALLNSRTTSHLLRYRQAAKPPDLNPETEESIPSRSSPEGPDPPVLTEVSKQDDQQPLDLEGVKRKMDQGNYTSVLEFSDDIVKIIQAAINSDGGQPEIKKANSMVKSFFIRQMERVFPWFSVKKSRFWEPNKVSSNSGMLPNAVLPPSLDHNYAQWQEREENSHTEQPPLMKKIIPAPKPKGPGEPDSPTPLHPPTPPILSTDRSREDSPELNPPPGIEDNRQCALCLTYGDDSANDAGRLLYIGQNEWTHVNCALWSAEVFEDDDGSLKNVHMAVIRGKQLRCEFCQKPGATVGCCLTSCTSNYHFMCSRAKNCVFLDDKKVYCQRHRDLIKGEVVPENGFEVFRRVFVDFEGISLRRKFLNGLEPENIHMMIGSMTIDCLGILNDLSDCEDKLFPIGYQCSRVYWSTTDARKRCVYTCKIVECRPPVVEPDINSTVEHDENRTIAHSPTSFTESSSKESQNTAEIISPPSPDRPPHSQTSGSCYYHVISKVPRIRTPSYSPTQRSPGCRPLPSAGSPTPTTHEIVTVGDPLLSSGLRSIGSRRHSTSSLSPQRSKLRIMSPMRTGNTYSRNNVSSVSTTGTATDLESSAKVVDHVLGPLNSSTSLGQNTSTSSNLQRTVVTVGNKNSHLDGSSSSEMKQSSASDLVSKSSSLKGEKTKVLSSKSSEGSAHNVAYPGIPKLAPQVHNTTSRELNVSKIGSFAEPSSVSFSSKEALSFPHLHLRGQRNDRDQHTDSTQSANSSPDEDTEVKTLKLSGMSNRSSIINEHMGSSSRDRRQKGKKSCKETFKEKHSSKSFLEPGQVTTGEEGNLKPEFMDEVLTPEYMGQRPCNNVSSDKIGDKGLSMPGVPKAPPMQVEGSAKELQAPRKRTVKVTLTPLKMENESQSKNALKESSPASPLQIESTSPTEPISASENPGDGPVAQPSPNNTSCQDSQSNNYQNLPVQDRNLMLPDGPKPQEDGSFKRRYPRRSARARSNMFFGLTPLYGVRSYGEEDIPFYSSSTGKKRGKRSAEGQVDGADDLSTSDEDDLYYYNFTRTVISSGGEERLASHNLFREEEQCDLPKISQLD
Histone-lysine N-methyltransferase 2A, sequence (Q03164 2719-3969 limits assumed): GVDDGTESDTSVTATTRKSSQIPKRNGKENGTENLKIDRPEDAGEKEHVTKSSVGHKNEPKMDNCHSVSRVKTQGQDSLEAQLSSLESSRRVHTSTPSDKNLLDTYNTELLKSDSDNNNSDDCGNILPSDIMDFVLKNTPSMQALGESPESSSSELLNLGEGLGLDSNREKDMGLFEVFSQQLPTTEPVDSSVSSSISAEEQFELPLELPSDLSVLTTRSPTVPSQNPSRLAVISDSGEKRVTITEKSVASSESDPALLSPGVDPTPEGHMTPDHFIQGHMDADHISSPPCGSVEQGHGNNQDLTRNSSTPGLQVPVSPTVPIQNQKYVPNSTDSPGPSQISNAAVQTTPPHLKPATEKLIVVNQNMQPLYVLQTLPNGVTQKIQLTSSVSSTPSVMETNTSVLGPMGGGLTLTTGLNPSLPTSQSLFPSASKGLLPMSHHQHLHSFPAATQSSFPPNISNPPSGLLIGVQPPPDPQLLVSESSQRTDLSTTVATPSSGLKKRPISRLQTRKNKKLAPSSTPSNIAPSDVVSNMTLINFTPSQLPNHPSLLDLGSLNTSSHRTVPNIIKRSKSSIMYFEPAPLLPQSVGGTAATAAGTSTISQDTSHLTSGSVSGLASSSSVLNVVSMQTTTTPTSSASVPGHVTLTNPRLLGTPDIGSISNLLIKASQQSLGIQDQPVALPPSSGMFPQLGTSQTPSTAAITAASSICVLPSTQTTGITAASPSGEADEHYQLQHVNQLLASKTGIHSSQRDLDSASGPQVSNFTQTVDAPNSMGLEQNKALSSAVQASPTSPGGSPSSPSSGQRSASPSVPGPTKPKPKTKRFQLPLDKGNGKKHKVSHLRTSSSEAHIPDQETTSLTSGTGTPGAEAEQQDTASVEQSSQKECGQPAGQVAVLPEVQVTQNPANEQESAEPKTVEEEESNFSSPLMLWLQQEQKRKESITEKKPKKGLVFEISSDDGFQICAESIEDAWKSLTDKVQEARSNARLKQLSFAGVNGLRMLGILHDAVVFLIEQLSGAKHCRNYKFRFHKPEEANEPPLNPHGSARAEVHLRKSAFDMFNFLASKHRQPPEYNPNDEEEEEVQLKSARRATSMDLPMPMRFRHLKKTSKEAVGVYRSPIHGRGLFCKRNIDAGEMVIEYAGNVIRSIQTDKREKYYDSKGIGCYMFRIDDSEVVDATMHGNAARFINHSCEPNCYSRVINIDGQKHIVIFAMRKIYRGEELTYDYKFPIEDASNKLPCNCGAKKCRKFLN

SMILES: COc1cc2c(cc1-c1c(C)noc1C)[nH]c1ccnc(-c3c(C4CC4)n[nH]c3C)c12
- Kd [1]: 29.6 nM
- Kd [2]: > 10000 nM
- Kd [3]: 9500 nM
- Kd [4]: > 10000 nM
- IC50 (K562): > 2000 nM
- IC50 [5]: 75.5 nM
- Ki [5]: 24.7 nM
- IC50 [6]: 36.5 nM
- Ki [6]: 12.2 nM
- Ki [7]: 11.1 nM
- Ki [8]: 11.7 nM
- Kd [9]: 47 nM
- Kd [10]: 44.6 nM

Reference: ChEMBL document CHEMBL3580597 (J Med Chem, 2015)
